In US11512053B2, “Arginine methyltransferase inhibitors and uses thereof” (priority 2013, dated 2022) one finds IC50 and EC30 data, which are given here for 17 compounds.

Each structure is given as a SMILES string. Read-outs that look alike come from different tables or passages of the source. Some results are limits rather than exact numbers.

Assay [1] concerns the target full-length human PRMT6 (Flag- and His-tagged) (Homo sapiens, UniProt Q96LA8). Put plainly: PRMT6 Biochemical Assay (3H-SAM Flashplate, peptide substrate). Particulars: read-out: Biochemical IC50 PRMT6. In short, it runs like this:
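Flag/His-tagged full-length human PRMT6 (1 nM) preincubated with compound 30 min at room temperature in Bicine pH 7.6 buffer, then reaction started with 3H-SAM 200 nM plus unlabeled SAM 250 nM and biotinylated H4 36-50 peptide (K44me1) 75 nM; 2% DMSO. Quenched with 400 uM cold SAM; labeled peptide captured on streptavidin Flashplate, counted; % inhibition vs DMSO and 1 mM SAH controls fit by 3- or 4-parameter curve.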

The subject of assay [2] is mono-methyl arginine in RKO cells. Put plainly: RKO Methylation Assay, In Cell Western (ICW) for detection of mono-methyl arginine and DNA content. Format: cell-based. Particulars: Homo sapiens, RKO, 72 h, RKO cells, read-out: In Cell Western EC30. In short, it runs like this: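 RKO cells were treated with compound for 72 hours at 37 °C, methanol-fixed and stained overnight at 4 °C with anti-mono-methyl arginine (1:200), with DRAQ5 for DNA. Odyssey 800/700 nm intensity ratio was normalized to DMSO and 20 μM reference-compound controls. EC30 from triplicate nine-point curves.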

Where [3] appears, read: single experiment or average of multiple experiments.
The mark [4] stands for this setting: 72 hours compound incubation, mono-methyl arginine signal normalised to DNA content (DRAQ5), percent activation vs 20 μM reference compound.
Setting [5] is: 72 hours incubation, mono-methyl arginine signal normalised to DNA content, single experiment or average of multiple experiments.

Sequence of full-length human PRMT6 (Flag- and His-tagged) (Q96LA8 with tags, fused parts or gaps): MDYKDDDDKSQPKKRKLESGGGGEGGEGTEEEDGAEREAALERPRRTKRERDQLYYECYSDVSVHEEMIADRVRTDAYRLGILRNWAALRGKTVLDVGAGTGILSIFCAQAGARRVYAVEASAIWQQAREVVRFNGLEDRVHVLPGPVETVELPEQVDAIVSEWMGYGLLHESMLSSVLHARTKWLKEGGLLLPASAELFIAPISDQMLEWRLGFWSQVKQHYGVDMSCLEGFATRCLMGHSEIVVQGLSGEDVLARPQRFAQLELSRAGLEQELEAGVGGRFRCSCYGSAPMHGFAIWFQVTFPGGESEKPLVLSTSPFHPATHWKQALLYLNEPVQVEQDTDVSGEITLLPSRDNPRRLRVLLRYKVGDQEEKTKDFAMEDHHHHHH

As for `CNCCN(C)Cc1c[nH]nc1C1CCC2(CC1)CNC(=O)C2` (centres unmarked) [Compound 147], the IC50 (usually the concentration that gives 50% inhibition) in assay [1] is under 100 nM; in assay [1] (setting [3]), 32.7 nM. Also, the values for the EC30 in assay [2] (setting [4]) and in assay [2] (setting [5]) were 3010 to 12000 nM and 8600 nM, respectively.

Take `CC[C@H]1CC[C@H](c2n[nH]cc2CN(C)CCNC)CC1` [Compound 148]: the IC50 in assay [1] was under 100 nM; in assay [1] (setting [3]) it was 8.1 nM. Besides, the values for the EC30 in assay [2] (setting [4]) and in assay [2] (setting [5]) were under 3000 nM and 16 nM, respectively.

For `CNCCN(C)Cc1c[nH]nc1C1CCC(C)CC1` (centres unmarked) [Compound 149], the IC50 in assay [1] was under 100 nM; in assay [1] (setting [3]), 7.2 nM. Besides, the 30% effect concentration (EC30) (usually the concentration at which the effect reaches the 30% level) in assay [2] (setting [4]) was under 3000 nM; in assay [2] (setting [5]), 106 nM.

`CNCCN(C)Cc1c[nH]nc1C1CCC2(CC1)OCC(C(C)C)CO2` (centres unmarked) [Compound 150]: the results for the IC50 in assay [1] and in assay [1] (setting [3]) were under 100 nM and 55.6 nM, respectively. In addition, the concentration for an effect of 30% (EC30) in assay [2] (setting [4]) is under 3000 nM; in assay [2] (setting [5]) it was 256 nM.

With `CNCCN(C)Cc1c[nH]nc1C1CCC2(CC1)CN(C)C(=O)N2CC(C)C` (centres unmarked) [Compound 151], the IC50 in assay [1] was under 100 nM; in assay [1] (setting [3]), 47.7 nM. The EC30 in assay [2] (setting [4]) is under 3000 nM; in assay [2] (setting [5]), 705 nM.

In the case of `CNCCN(C)Cc1c[nH]nc1C1CCC2(CC1)CCN(C)C2=O` (centres unmarked) [Compound 152], the values for the IC50 in assay [1] and in assay [1] (setting [3]) were under 100 nM and 35.2 nM, respectively. For the same compound, the EC30 in assay [2] (setting [4]) is under 3000 nM; in assay [2] (setting [5]), 119 nM.

Take `CNCCN(C)Cc1c[nH]nc1C1CCC(OCC(C)C)CC1` (centres unmarked) [Compound 153]: the results for the IC50 in assay [1] and in assay [1] (setting [3]) were under 100 nM and 28.4 nM, respectively. Besides, the EC30 in assay [2] (setting [4]) is under 3000 nM; in assay [2] (setting [5]), 129 nM.

With `CCN1CC2(CCC(c3n[nH]cc3CN(C)CCNC)CC2)N(C)C1=O` (centres unmarked) [Compound 154], the IC50 was under 100 nM in assay [1] and 44.3 nM in assay [1] (setting [3]). In addition, the EC30 in assay [2] (setting [4]) is under 3000 nM; in assay [2] (setting [5]), 1790 nM.

Regarding `CNCCN(C)Cc1c[nH]nc1[C@H]1CC[C@]2(CC1)CC(=O)N(CC(C)C)C2` [Compound 155], the IC50 in assay [1] is under 100 nM; in assay [1] (setting [3]) it was 60.8 nM. The results for the EC30 in assay [2] (setting [4]) and in assay [2] (setting [5]) were 3010 to 12000 nM and 4080 nM, respectively.

In the case of `CNCCN(C)Cc1c[nH]nc1[C@H]1CC[C@@]2(CC1)CC(=O)N(CC(C)C)C2` [Compound 156], the IC50 in assay [1] is under 100 nM; in assay [1] (setting [3]), 57.8 nM. Also, the EC30 in assay [2] (setting [4]) was under 3000 nM; in assay [2] (setting [5]), 1360 nM.

Regarding `CNCCN(C)Cc1c[nH]nc1C1CCC2(CC1)CC(=O)N(C)C2` (centres unmarked) [Compound 157], the results for the IC50 in assay [1] and in assay [1] (setting [3]) were under 100 nM and 47.9 nM, respectively. Besides, the EC30 in assay [2] (setting [4]) was under 3000 nM; in assay [2] (setting [5]), 2490 nM.

For `CCOC1CC(OCC)CC2(CCC(c3n[nH]cc3CN(C)CCNC)CC2)C1` (centres unmarked) [Compound 159], the IC50 in assay [1] is under 100 nM; in assay [1] (setting [3]) it was 53.8 nM. The EC30 is under 3000 nM in assay [2] (setting [4]) and 63 nM in assay [2] (setting [5]).

On to `CNCCN(C)Cc1c[nH]nc1C1CCC2(CC1)OCCCO2` [Compound 160], for which the IC50 was 101 to 1000 nM in assay [1] and 112 nM in assay [1] (setting [3]). Also, the 30% effect concentration (EC30) was under 3000 nM in assay [2] (setting [4]) and 166 nM in assay [2] (setting [5]).

For `CNCCN(C)Cc1c[nH]nc1C1CCC2(CC1)C(=O)NC(=O)N2C` (centres unmarked) [Compound 161], the figures for the IC50 in assay [1] and in assay [1] (setting [3]) were under 100 nM and 72.9 nM, respectively. Moreover, the EC30 in assay [2] (setting [4]) is 3010 to 12000 nM; in assay [2] (setting [5]), 5020 nM.

For the compound `CCN1C(=O)N(C)CC12CCC(c1n[nH]cc1CN(C)CCNC)CC2` (centres unmarked) [Compound 162], the IC50 was under 100 nM in assay [1] and 61 nM in assay [1] (setting [3]). Besides, the values for the EC30 in assay [2] (setting [4]) and in assay [2] (setting [5]) were 3010 to 12000 nM and 6680 nM, respectively.

For `CNCCN(C)Cc1c[nH]nc1C1CCC2(CC1)CCN(CCC(C)C)C2=O` (centres unmarked) [Compound 163], the results for the IC50 in assay [1] and in assay [1] (setting [3]) were under 100 nM and 65.7 nM, respectively. In addition, the EC30 in assay [2] (setting [4]) is under 3000 nM; in assay [2] (setting [5]) it was 66 nM.

For `CNCCN(C)Cc1c[nH]nc1C1CCC2(CC1)CCN(CC(C)C)C2=O` (centres unmarked) [Compound 164], the IC50 is under 100 nM in assay [1] and 70.8 nM in assay [1] (setting [3]). The figures for the EC30 in assay [2] (setting [4]) and in assay [2] (setting [5]) were under 3000 nM and 78 nM, respectively.
